Test results from US4356186A, “Acetic acid derivatives and composition containing the same” (priority 1980, dated 1982).
Where two headings read alike, the source gives them in different places.

Experiments:
[1] = test system: carrageenin-induced hind paw edema; assay: Anti-inflammatory activity (carrageenin-induced hind paw edema in rats); format: in vivo, Male Wistar rats; settings: for inhibition in vivo at 2 mg/kg / inhibition in vivo at 5 mg/kg / inhibition in vivo at 0.5 mg/kg / inhibition in vivo at 1 mg/kg / inhibition in vivo at 80 mg/kg / inhibition in vivo at 20 mg/kg / inhibition in vivo at 40 mg/kg / inhibition in vivo at 160 mg/kg / inhibition in vivo at 10 mg/kg: Rattus norvegicus, po; for inhibition in vivo at 2 mg/kg: 2 mg/kg p.o.; for inhibition in vivo at 5 mg/kg: 5 mg/kg p.o.; for inhibition in vivo at 0.5 mg/kg: 0.5 mg/kg p.o.; for inhibition in vivo at 1 mg/kg: 1 mg/kg p.o.; for anti-inflammatory activity compared with the known indomethacin / anti-inflammatory activity compared with the known aspirin: in words, from Table 1; for inhibition in vivo at 10 mg/kg: 10 mg/kg p.o.
Method: Anti-inflammatory activity (carrageenin-induced hind paw edema in rats)
The test was carried out in a similar manner as disclosed in Proc. Soc. Exptl.
Male Wistar rats, weighing 100-300 g, were used. A 1% aqueous carrageenin solution (0.1 ml) was administered subcutaneously into the hind foot pad of rats. Two and three hours after the carrageenin injection, the paw volume was measured and the swelling rate was calculated based on the paw volume before the carrageenin injection. The inhibitory rate was determined as compared with the average swelling rate of the control group to which only vehicle was administered. The test compounds were administered orally one hour before the carrageenin injection.

stomach ulcer = assay: Gastrointestinal ulcerogenicity; format: in vivo, Male Wistar rats; set-up: key to Average score of stomach ulcer: ulcer score 1 to 4, 4 = most severe ulcer; settings: for Number of rats having a score of stomach ulcer of 2 or more/total number of rats used / Average score of stomach ulcer: after 6 hours; for Average score of stomach ulcer: score 1 to 4; for gastrointestinal ulcerogenicity compared with the known aspirin: in words, from Table 2
Method: Gastrointestinal ulcerogenicity
The test was carried out in a similar manner as disclosed in Arzneim. Forsch., 19, 36 (1969).
Male Wistar rats, weighing 130-180 g, were used. After the rats were fasted for 24 hours, the test compound was orally administered one time. After 6 hours, the rats were killed and the stomach was removed. […] The degree of stomach ulcer was scored from 1 to 4, wherein 4 is the most severe ulcer. In Table 2, there are shown the average score of stomach ulcer in each dose and also the ratio of the number of rats having a score of stomach ulcer of 2 or more to total number of rats used.

[2] = 2 h, two hours, read-out: Inhibitory rate, two hours after the carrageenin injection
[3] = 3 h, three hours, read-out: Inhibitory rate, three hours after the carrageenin injection
[4] = 2 h, 80 mg/kg p.o., two hours, read-out: Inhibitory rate, two hours after the carrageenin injection
[5] = 3 h, 80 mg/kg p.o., three hours, read-out: Inhibitory rate, three hours after the carrageenin injection
[6] = 2 h, read-out: Inhibitory rate, two hours after the carrageenin injection
[7] = 3 h, read-out: Inhibitory rate, three hours after the carrageenin injection
[8] = 2 h, 40 mg/kg p.o., two hours, read-out: Inhibitory rate, two hours after the carrageenin injection
[9] = 3 h, 40 mg/kg p.o., three hours, read-out: Inhibitory rate, three hours after the carrageenin injection

## CCCCOC(=O)C(C)c1ccc2c(c1)SCC1CCCCC1C2=O (stereo not drawn) [J, Butyl 2-(6,6a,7,8,9,10,10a,11-octahydro-11-oxodibenzo[b,e]thiepin-3-yl)propionate]
[1]; [2]
  inhibition in vivo at 2 mg/kg: 21.5%
  inhibition in vivo at 5 mg/kg: 31.8%
[1]; [3]
  inhibition in vivo at 2 mg/kg: 11.5%
  inhibition in vivo at 5 mg/kg: 26%
Stomach ulcer; 16 mg/kg p.o.
  Number of rats having a score of stomach ulcer of 2 or more/total number of rats used: 0/3
  Average score of stomach ulcer: 0.33
Stomach ulcer; 32 mg/kg p.o.
  Number of rats having a score of stomach ulcer of 2 or more/total number of rats used: 3/6
  Average score of stomach ulcer: 1.33
Stomach ulcer; 64 mg/kg p.o.
  Number of rats having a score of stomach ulcer of 2 or more/total number of rats used: 3/6
  Average score of stomach ulcer: 1.50

## CC(C(=O)O)c1ccc2c(c1)OCC1CCCCC1C2=O (stereo not drawn) [A, 2-(6,6a,7,8,9,10,10a,11-Octahydro-11-oxodibenz[b,e]oxepin-3-yl)propionicacid]
[1]; [2]
  inhibition in vivo at 0.5 mg/kg: 23.7%
  inhibition in vivo at 1 mg/kg: 34.3%
  inhibition in vivo at 2 mg/kg: 40.5%
[1]; [3]
  inhibition in vivo at 0.5 mg/kg: 17.4%
  inhibition in vivo at 1 mg/kg: 26.9%
  inhibition in vivo at 2 mg/kg: 32.6%
[1]
  anti-inflammatory activity compared with the known indomethacin: comparable or superior to that of the known indomethacin

## O=C(O)Cc1ccc2c(c1)OCC1CCCCC1C2=O (stereo not drawn) [B, 6,6a,7,8,9,10,10a,11-Octahydro-11-oxodibenz[b,e]oxepin-3-acetic acid]
[1]; [2]
  inhibition in vivo at 1 mg/kg: 17.8%
[1]; [3]
  inhibition in vivo at 1 mg/kg: 7.8%
[1]
  anti-inflammatory activity compared with the known indomethacin: comparable or superior to that of the known indomethacin

## CC(C(=O)NCC(=O)O)c1ccc2c(c1)SCC1CCCCC1C2=O (stereo not drawn) [T, N-Carboxymethyl-2-(6,6a,7,8,9,10,10a,11-octahydro-11-oxodibenzo[b,e]thiepin-3-yl)propionamide]
[1]; [2]
  inhibition in vivo at 2 mg/kg: 19.9%
  inhibition in vivo at 5 mg/kg: 43.9%
[1]; [3]
  inhibition in vivo at 2 mg/kg: 15%
  inhibition in vivo at 5 mg/kg: 28.1%

## CC(C(=O)O)c1ccc2c(c1)C(=O)C1CCCCC1CO2 (stereo not drawn) [C, 2-(6,6a,7,8,9,10,10a,11-Octahydro-11-oxodibenz[b,e]oxepin-2-yl)propionicacid]
[1]; [4]
  inhibition in vivo at 80 mg/kg: 27.9%
[1]; [5]
  inhibition in vivo at 80 mg/kg: 23.1%
[1]
  anti-inflammatory activity compared with the known aspirin: comparable or superior to that of the known aspirin

## CC(=O)Oc1ccccc1C(=O)O [Compound 2, Aspirin, reference compound]
[1]; [6]
  inhibition in vivo at 20 mg/kg: 14.1%
  inhibition in vivo at 40 mg/kg: 22.9%
  inhibition in vivo at 80 mg/kg: 30.8%
  inhibition in vivo at 160 mg/kg: 35.1%
[1]; [7]
  inhibition in vivo at 20 mg/kg: 9%
  inhibition in vivo at 40 mg/kg: 21.2%
  inhibition in vivo at 80 mg/kg: 25.9%
  inhibition in vivo at 160 mg/kg: 30.9%
Stomach ulcer; 20 mg/kg p.o.
  Number of rats having a score of stomach ulcer of 2 or more/total number of rats used: 0/6
  Average score of stomach ulcer: 0.83
Stomach ulcer; 40 mg/kg p.o.
  Number of rats having a score of stomach ulcer of 2 or more/total number of rats used: 3/6
  Average score of stomach ulcer: 1.33
Stomach ulcer; 60 mg/kg p.o.
  Number of rats having a score of stomach ulcer of 2 or more/total number of rats used: 5/6
  Average score of stomach ulcer: 2.33
Stomach ulcer; 80 mg/kg p.o.
  Number of rats having a score of stomach ulcer of 2 or more/total number of rats used: 5/6
  Average score of stomach ulcer: 3.33
Stomach ulcer; 160 mg/kg p.o.
  Number of rats having a score of stomach ulcer of 2 or more/total number of rats used: 6/6
  Average score of stomach ulcer: 4.00

## CC(C(=O)OCCOCCO)c1ccc2c(c1)SCC1CCCCC1C2=O (stereo not drawn) [N, 2-(2-Hydroxyethoxy)ethyl 2-(6,6a,7,8,9,10,10a,11-octahydro-11-oxodibenzo[b,e]thiepin-3-yl)propionate]
[1]; [2]
  inhibition in vivo at 2 mg/kg: 15.8%
  inhibition in vivo at 5 mg/kg: 43.9%
[1]; [3]
  inhibition in vivo at 2 mg/kg: 13.2%
  inhibition in vivo at 5 mg/kg: 28.1%

## CCOC(=O)C(C)c1ccc2c(c1)SCC1CCCCC1C2=O (stereo not drawn) [I, Ethyl 2-(6,6a,7,8,9,10,10a,11-octahydro-11-oxodibenzo[b,e]thiepin-3-yl)propionate]
[1]; [2]
  inhibition in vivo at 5 mg/kg: 42.2%
[1]; [3]
  inhibition in vivo at 5 mg/kg: 38.3%
Stomach ulcer; 8 mg/kg p.o.
  Number of rats having a score of stomach ulcer of 2 or more/total number of rats used: 0/3
  Average score of stomach ulcer: 0.00
Stomach ulcer; 32 mg/kg p.o.
  Number of rats having a score of stomach ulcer of 2 or more/total number of rats used: 0/6
  Average score of stomach ulcer: 0.33
Stomach ulcer; 64 mg/kg p.o.
  Number of rats having a score of stomach ulcer of 2 or more/total number of rats used: 3/6
  Average score of stomach ulcer: 1.00
Stomach ulcer
  gastrointestinal ulcerogenicity compared with the known aspirin: far less gastrointestinal ulcerogenicity than the known aspirin

## CC(C(=O)OCCN1CCOCC1)c1ccc2c(c1)SCC1CCCCC1C2=O (stereo not drawn) [Q, 2-Morpholinoethyl 2-(6,6a,7,8,9,10,10a,11-octahydro-11-oxodibenzo[b,e]thiepin-3-yl)propionate]
[1]; [2]
  inhibition in vivo at 2 mg/kg: 25.4%
  inhibition in vivo at 5 mg/kg: 28.9%
[1]; [3]
  inhibition in vivo at 2 mg/kg: 22.8%
  inhibition in vivo at 5 mg/kg: 22%

## CC(C(=O)OCCc1ccccn1)c1ccc2c(c1)SCC1CCCCC1C2=O (stereo not drawn) [P, 2-(2-Pyridyl)ethyl 2-(6,6a,7,8,9,10,10a,11-octahydro-11-oxodibenzo[b,e]thiepin-3-yl)propionate]
[1]; [2]
  inhibition in vivo at 5 mg/kg: 27.6%
[1]; [3]
  inhibition in vivo at 5 mg/kg: 25.5%
Stomach ulcer; 32 mg/kg p.o.
  Number of rats having a score of stomach ulcer of 2 or more/total number of rats used: 0/6
  Average score of stomach ulcer: 0.17
Stomach ulcer; 64 mg/kg p.o.
  Number of rats having a score of stomach ulcer of 2 or more/total number of rats used: 3/6
  Average score of stomach ulcer: 0.50
Stomach ulcer
  gastrointestinal ulcerogenicity compared with the known aspirin: far less gastrointestinal ulcerogenicity than the known aspirin

## CC(C(=O)O)c1ccc2c(c1)C(=O)C1CCCCC1CS2 (stereo not drawn) [D, 2-(6,6a,7,8,9,10,10a,11-Octahydro-11-oxodibenzo[b,e]thiepin-2-yl)propionicacid]
[1]; [8]
  inhibition in vivo at 40 mg/kg: 28.6%
[1]; [4]
  inhibition in vivo at 80 mg/kg: 34%
[1]; [9]
  inhibition in vivo at 40 mg/kg: 24.6%
[1]; [5]
  inhibition in vivo at 80 mg/kg: 27.1%
[1]
  anti-inflammatory activity compared with the known aspirin: comparable or superior to that of the known aspirin

## CC(C(=O)O)c1ccc2c(c1)SCC1CCCCC1C2=O (stereo not drawn) [G, 2-(6,6a,7,8,9,10,10a,11-Octahydro-11-oxodibenzo[b,e]thiepin-3-yl)propionicacid-B]
[1]; [2]
  inhibition in vivo at 10 mg/kg: 12%
[1]; 2 h, 20 mg/kg p.o., two hours, read-out: Inhibitory rate, two hours after the carrageenin injection
  inhibition in vivo at 20 mg/kg: 18.3%
[1]; [8]
  inhibition in vivo at 40 mg/kg: 33.2%
[1]; [4]
  inhibition in vivo at 80 mg/kg: 32.2%
[1]; [3]
  inhibition in vivo at 10 mg/kg: 7.1%
[1]; 3 h, 20 mg/kg p.o., three hours, read-out: Inhibitory rate, three hours after the carrageenin injection
  inhibition in vivo at 20 mg/kg: 11%
[1]; [9]
  inhibition in vivo at 40 mg/kg: 26.9%
[1]; [5]
  inhibition in vivo at 80 mg/kg: 30.2%
[1]
  anti-inflammatory activity compared with the known aspirin: comparable or superior to that of the known aspirin

## CC(C(=O)NO)c1ccc2c(c1)SCC1CCCCC1C2=O (stereo not drawn) [S, 2-(6,6a,7,8,9,10,10a,11-Octahydro-11-oxodibenzo[b,e]thiepin-3-yl)propionohydroxamic acid]
[1]; [2]
  inhibition in vivo at 2 mg/kg: 21.9%
  inhibition in vivo at 5 mg/kg: 31.5%
[1]; [3]
  inhibition in vivo at 2 mg/kg: 18.5%
  inhibition in vivo at 5 mg/kg: 29.9%

## O=C(O)Cc1ccc2c(c1)SCC1CCCCC1C2=O (stereo not drawn) [E, 6,6a,7,8,9,10,10a,11-Octahydro-11-oxodibenzo[b,e]thiepin-3-acetic acid]
[1]; [2]
  inhibition in vivo at 2 mg/kg: 26.3%
[1]; [3]
  inhibition in vivo at 2 mg/kg: 16.8%
[1]
  anti-inflammatory activity compared with the known indomethacin: comparable or superior to that of the known indomethacin

## CC(C(=O)OCC(=O)c1ccccc1)c1ccc2c(c1)SCC1CCCCC1C2=O (stereo not drawn) [M, Phenacyl 2-(6,6a,7,8,9,10,10a,11-octahydro-11-oxodibenzo[b,e]thiepin-3-yl)propionate]
[1]; [2]
  inhibition in vivo at 5 mg/kg: 33.2%
[1]; [3]
  inhibition in vivo at 5 mg/kg: 26.6%

## C=CCOC(=O)C(C)c1ccc2c(c1)SCC1CCCCC1C2=O (stereo not drawn) [K, Allyl 2-(6,6a,7,8,9,10,10a,11-octahydro-11-oxodibenzo[b,e]thiepin-3-yl)propionate]
[1]; [2]
  inhibition in vivo at 2 mg/kg: 27%
  inhibition in vivo at 5 mg/kg: 34.3%
[1]; [3]
  inhibition in vivo at 2 mg/kg: 22.3%
  inhibition in vivo at 5 mg/kg: 33.5%
